Laboratory results reported in ChEMBL document CHEMBL4052761, “20(R)-Ginsenoside Rg3 protects SH-SY5Y cells against apoptosis induced by oxygen and glucose deprivation/reperfusion” (2017).
Calls of active or inactive are those of the source. No cut-off for these calls is given here.

What was measured:
[1] = tested on: SH-SY5Y; test: Cytoprotection against oxygen-glucose deprivation/reperfusion-induced cell death in human SH-SY5Y cells assessed as increase in cell viability at 25 to 125 umol/L pretreated for 24 hrs followed by oxygen-glucose deprivation for 10 hrs and reperfusion for 24 hrs by MTT assay; format: functional, cell-based
[2] = tested on: SH-SY5Y; test: Cytoprotection against oxygen-glucose deprivation/reperfusion-induced cell death in human SH-SY5Y cells assessed as reduction in LDH leakage at 25 to 125 umol/L pretreated for 24 hrs followed by oxygen-glucose deprivation for 10 hrs and reperfusion for 24 hrs; format: functional, cell-based
[3] = tested on: SH-SY5Y; test: Cytoprotection against oxygen-glucose deprivation/reperfusion-induced cell death in human SH-SY5Y cells assessed as reduction in LDH leakage at 1 to 5 umol/L pretreated for 24 hrs followed by oxygen-glucose deprivation for 10 hrs and reperfusion for 24 hrs; format: functional, cell-based
[4] = tested on: SH-SY5Y; test: Cytoprotection against oxygen-glucose deprivation/reperfusion-induced cell death in human SH-SY5Y cells assessed as early apoptotic cells at 1 umol/L pretreated for 24 hrs followed by oxygen-glucose deprivation for 10 hrs and reperfusion for 24 hrs by annexin V-FITC-propidium iodide staining-based flow cytometry method (reference value: 24.0%); format: functional
[5] = tested on: SH-SY5Y; test: Cytoprotection against oxygen-glucose deprivation/reperfusion-induced cell death in human SH-SY5Y cells assessed as late apoptotic cells at 1 umol/L pretreated for 24 hrs followed by oxygen-glucose deprivation for 10 hrs and reperfusion for 24 hrs by annexin V-FITC-propidium iodide staining-based flow cytometry method (reference value: 10.5%); format: functional
[6] = tested on: SH-SY5Y; test: Cytoprotection against oxygen-glucose deprivation/reperfusion-induced cell death in human SH-SY5Y cells assessed as necrotic cells at 1 umol/L pretreated for 24 hrs followed by oxygen-glucose deprivation for 10 hrs and reperfusion for 24 hrs by annexin V-FITC-propidium iodide staining-based flow cytometry method (reference value: 2.3%); format: functional
[7] = tested on: SH-SY5Y; test: Cytoprotection against oxygen-glucose deprivation/reperfusion-induced cell death in human SH-SY5Y cells assessed as viable cells at 1 umol/L pretreated for 24 hrs followed by oxygen-glucose deprivation for 10 hrs and reperfusion for 24 hrs by annexin V-FITC-propidium iodide staining-based flow cytometry method (reference value: 63.2%); format: functional; settings: read-out: Activity
[8] = tested on: SH-SY5Y; test: Cytoprotection against oxygen-glucose deprivation/reperfusion-induced cell death in human SH-SY5Y cells assessed as early apoptotic cells at 5 umol/L pretreated for 24 hrs followed by oxygen-glucose deprivation for 10 hrs and reperfusion for 24 hrs by annexin V-FITC-propidium iodide staining-based flow cytometry method (reference value: 24.0%); format: functional
[9] = tested on: SH-SY5Y; test: Cytoprotection against oxygen-glucose deprivation/reperfusion-induced cell death in human SH-SY5Y cells assessed as late apoptotic cells at 5 umol/L pretreated for 24 hrs followed by oxygen-glucose deprivation for 10 hrs and reperfusion for 24 hrs by annexin V-FITC-propidium iodide staining-based flow cytometry method (reference value: 10.5%); format: functional
[10] = tested on: SH-SY5Y; test: Cytoprotection against oxygen-glucose deprivation/reperfusion-induced cell death in human SH-SY5Y cells assessed as necrotic cells at 5 umol/L pretreated for 24 hrs followed by oxygen-glucose deprivation for 10 hrs and reperfusion for 24 hrs by annexin V-FITC-propidium iodide staining-based flow cytometry method (reference value: 2.3%); format: functional
[11] = tested on: SH-SY5Y; test: Cytoprotection against oxygen-glucose deprivation/reperfusion-induced cell death in human SH-SY5Y cells assessed as viable cells at 5 umol/L pretreated for 24 hrs followed by oxygen-glucose deprivation for 10 hrs and reperfusion for 24 hrs by annexin V-FITC-propidium iodide staining-based flow cytometry method (reference value: 63.2%); format: functional; settings: read-out: Activity
[12] = tested on: SH-SY5Y; test: Cytoprotection against oxygen-glucose deprivation/reperfusion-induced cell death in human SH-SY5Y cells assessed as early apoptotic cells at 25 umol/L pretreated for 24 hrs followed by oxygen-glucose deprivation for 10 hrs and reperfusion for 24 hrs by annexin V-FITC-propidium iodide staining-based flow cytometry method (reference value: 24.0%); format: functional
[13] = tested on: SH-SY5Y; test: Cytoprotection against oxygen-glucose deprivation/reperfusion-induced cell death in human SH-SY5Y cells assessed as late apoptotic cells at 25 umol/L pretreated for 24 hrs followed by oxygen-glucose deprivation for 10 hrs and reperfusion for 24 hrs by annexin V-FITC-propidium iodide staining-based flow cytometry method (reference value: 10.5%); format: functional
[14] = tested on: SH-SY5Y; test: Cytoprotection against oxygen-glucose deprivation/reperfusion-induced cell death in human SH-SY5Y cells assessed as necrotic cells at 25 umol/L pretreated for 24 hrs followed by oxygen-glucose deprivation for 10 hrs and reperfusion for 24 hrs by annexin V-FITC-propidium iodide staining-based flow cytometry method (reference value: 2.3%); format: functional
[15] = tested on: SH-SY5Y; test: Cytoprotection against oxygen-glucose deprivation/reperfusion-induced cell death in human SH-SY5Y cells assessed as viable cells at 25 umol/L pretreated for 24 hrs followed by oxygen-glucose deprivation for 10 hrs and reperfusion for 24 hrs by annexin V-FITC-propidium iodide staining-based flow cytometry method (reference value: 63.2%); format: functional; settings: read-out: Activity
[16] = tested on: SH-SY5Y; test: Cytoprotection against oxygen-glucose deprivation/reperfusion-induced cell death in human SH-SY5Y cells assessed as early apoptotic cells at 125 umol/L pretreated for 24 hrs followed by oxygen-glucose deprivation for 10 hrs and reperfusion for 24 hrs by annexin V-FITC-propidium iodide staining-based flow cytometry method (reference value: 24.0%); format: functional
[17] = tested on: SH-SY5Y; test: Cytoprotection against oxygen-glucose deprivation/reperfusion-induced cell death in human SH-SY5Y cells assessed as late apoptotic cells at 125 umol/L pretreated for 24 hrs followed by oxygen-glucose deprivation for 10 hrs and reperfusion for 24 hrs by annexin V-FITC-propidium iodide staining-based flow cytometry method (reference value: 10.5%); format: functional
[18] = tested on: SH-SY5Y; test: Cytoprotection against oxygen-glucose deprivation/reperfusion-induced cell death in human SH-SY5Y cells assessed as necrotic cells at 125 umol/L pretreated for 24 hrs followed by oxygen-glucose deprivation for 10 hrs and reperfusion for 24 hrs by annexin V-FITC-propidium iodide staining-based flow cytometry method (reference value: 2.3%); format: functional
[19] = tested on: SH-SY5Y; test: Cytoprotection against oxygen-glucose deprivation/reperfusion-induced cell death in human SH-SY5Y cells assessed as viable cells at 125 umol/L pretreated for 24 hrs followed by oxygen-glucose deprivation for 10 hrs and reperfusion for 24 hrs by annexin V-FITC-propidium iodide staining-based flow cytometry method (reference value: 63.2%); format: functional; settings: read-out: Activity
[20] = tested on: SH-SY5Y; test: Cytoprotection against oxygen-glucose deprivation/reperfusion-induced cell death in human SH-SY5Y cells assessed as early apoptotic cells pretreated for 24 hrs followed by oxygen-glucose deprivation for 10 hrs and reperfusion for 24 hrs by annexin V-FITC-propidium iodide staining-based flow cytometry method (reference value: 24.0%); format: functional
[21] = tested on: SH-SY5Y; test: Cytoprotection against oxygen-glucose deprivation/reperfusion-induced cell death in human SH-SY5Y cells assessed as late apoptotic cells pretreated for 24 hrs followed by oxygen-glucose deprivation for 10 hrs and reperfusion for 24 hrs by annexin V-FITC-propidium iodide staining-based flow cytometry method (reference value: 10.5%); format: functional
[22] = tested on: SH-SY5Y; test: Cytoprotection against oxygen-glucose deprivation/reperfusion-induced cell death in human SH-SY5Y cells assessed as necrotic cells pretreated for 24 hrs followed by oxygen-glucose deprivation for 10 hrs and reperfusion for 24 hrs by annexin V-FITC-propidium iodide staining-based flow cytometry method (reference value: 2.3%); format: functional
[23] = tested on: SH-SY5Y; test: Cytoprotection against oxygen-glucose deprivation/reperfusion-induced cell death in human SH-SY5Y cells assessed as viable cells pretreated for 24 hrs followed by oxygen-glucose deprivation for 10 hrs and reperfusion for 24 hrs by annexin V-FITC-propidium iodide staining-based flow cytometry method (reference value: 63.2%); format: functional
[24] = tested on: SH-SY5Y; test: Cytoprotection against oxygen-glucose deprivation/reperfusion-induced cell death in human SH-SY5Y cells assessed as decrease in cleaved caspase-3 level at 25 to 125 umol/L pretreated for 24 hrs followed by oxygen-glucose deprivation for 10 hrs and reperfusion for 24 hrs by Western blot analysis; format: functional, cell-based
[25] = tested on: SH-SY5Y; test: Cytoprotection against oxygen-glucose deprivation/reperfusion-induced cell death in human SH-SY5Y cells assessed as decrease in Bax protein level at 5 to 125 umol/L pretreated for 24 hrs followed by oxygen-glucose deprivation for 10 hrs and reperfusion for 24 hrs by Western blot analysis; format: functional, cell-based
[26] = tested on: SH-SY5Y; test: Cytoprotection against oxygen-glucose deprivation/reperfusion-induced cell death in human SH-SY5Y cells assessed as increase in Bcl-2 protein level at 5 to 125 umol/L pretreated for 24 hrs followed by oxygen-glucose deprivation for 10 hrs and reperfusion for 24 hrs by Western blot analysis; format: functional, cell-based
[27] = tested on: SH-SY5Y; test: Cytoprotection against oxygen-glucose deprivation/reperfusion-induced cell death in human SH-SY5Y cells assessed as decrease in Bax m-RNA expression pretreated for 24 hrs followed by oxygen-glucose deprivation for 10 hrs and reperfusion for 24 hrs by RT-qPCR analysis; format: functional, cell-based
[28] = tested on: SH-SY5Y; test: Cytoprotection against oxygen-glucose deprivation/reperfusion-induced cell death in human SH-SY5Y cells assessed as decrease in Bax m-RNA expression at 125 umol/L pretreated for 24 hrs followed by oxygen-glucose deprivation for 10 hrs and reperfusion for 24 hrs by RT-qPCR analysis; format: functional, cell-based
[29] = tested on: SH-SY5Y; test: Cytoprotection against oxygen-glucose deprivation/reperfusion-induced cell death in human SH-SY5Y cells assessed as increase in Bcl2 m-RNA expression pretreated for 24 hrs followed by oxygen-glucose deprivation for 10 hrs and reperfusion for 24 hrs by RT-qPCR analysis; format: functional, cell-based
[30] = tested on: SH-SY5Y; test: Cytoprotection against oxygen-glucose deprivation/reperfusion-induced cell death in human SH-SY5Y cells assessed as increase in Bcl2 m-RNA expression at 125 umol/L pretreated for 24 hrs followed by oxygen-glucose deprivation for 10 hrs and reperfusion for 24 hrs by RT-qPCR analysis; format: functional, cell-based
[31] = tested on: SH-SY5Y; test: Cytoprotection against oxygen-glucose deprivation/reperfusion-induced cell death in human SH-SY5Y cells assessed as reduction in LDH leakage at 100 umol/L pretreated for 24 hrs followed by oxygen-glucose deprivation for 10 hrs and reperfusion for 24 hrs; format: functional, cell-based
[32] = tested on: SH-SY5Y; test: Cytoprotection against oxygen-glucose deprivation/reperfusion-induced cell death in human SH-SY5Y cells assessed as increase in cell viability at 100 umol/L pretreated for 24 hrs followed by oxygen-glucose deprivation for 10 hrs and reperfusion for 24 hrs by MTT assay; format: functional, cell-based
[33] = tested on: SH-SY5Y; test: Cytoprotection against oxygen-glucose deprivation/reperfusion-induced cell death in human SH-SY5Y cells assessed as decrease in cleaved caspase-3 level at 100 umol/L pretreated for 24 hrs followed by oxygen-glucose deprivation for 10 hrs and reperfusion for 24 hrs by Western blot analysis; format: functional, cell-based
[34] = tested on: SH-SY5Y; test: Cytoprotection against oxygen-glucose deprivation/reperfusion-induced cell death in human SH-SY5Y cells assessed as decrease in Bax m-RNA expression at 100 umol/L pretreated for 24 hrs followed by oxygen-glucose deprivation for 10 hrs and reperfusion for 24 hrs by RT-qPCR analysis; format: functional, cell-based
[35] = tested on: SH-SY5Y; test: Cytoprotection against oxygen-glucose deprivation/reperfusion-induced cell death in human SH-SY5Y cells assessed as increase in Bcl2 m-RNA expression at 100 umol/L pretreated for 24 hrs followed by oxygen-glucose deprivation for 10 hrs and reperfusion for 24 hrs by RT-qPCR analysis; format: functional, cell-based

CC(C)=CCC[C@](C)(O)[C@H]1CC[C@]2(C)[C@@H]1[C@H](O)C[C@@H]1[C@@]3(C)CC[C@H](O[C@@H]4O[C@H](CO)[C@@H](O)[C@H](O)[C@H]4O[C@@H]4O[C@H](CO)[C@@H](O)[C@H](O)[C@H]4O)C(C)(C)[C@@H]3CC[C@]12C
Activity [1]: Active
Activity [2]: Active
Activity [3]: inactive
Activity [4]: 17%
Activity [5]: 10.3%
Activity [6]: 2.7%
viability at 1 µM [7]: 69.9%
Activity [8]: 13%
Activity [9]: 11.3%
Activity [10]: 5.8%
viability at 5 µM [11]: 70%
Activity [12]: 7.9%
Activity [13]: 5.7%
Activity [14]: 8.9%
viability at 25 µM [15]: 77.5%
Activity [16]: 5%
Activity [17]: 4.8%
Activity [18]: 9.8%
viability at 125 µM [19]: 80.4%
Activity [20]: 8%
Activity [21]: 2.8%
Activity [22]: 8.9%
Activity [23]: 80.4%
Activity [24]: Active
Activity [25]: Active
Activity [26]: Active
Activity [27]: Dose-dependent effect
Activity [28]: Active
Activity [29]: Dose-dependent effect
Activity [30]: Active

COCCOC(=O)C1=C(C)NC(C)=C(C(=O)OC(C)C)C1c1cccc([N+](=O)[O-])c1 (stereo not given)
Activity [31]: Active
Activity [32]: Active
Activity [33]: Active
Activity [34]: Active
Activity [35]: Active
